We go through 19 sequences from patent publication US20060035291A1, “Method of detecting cellular immunity and application thereof to drugs” (priority 2001, published 2006).

The test system of series [1] is cancer patients. Kind of series: Skin test for immediate and delayed type hypersensitivity in cancer patients. The following applies: for type I allergy in skin tests during the course of vaccination: skin tests before the 9th and 17th dose (ART413, SART3315), 3rd pre-vaccination skin test (CypB91). Here is the method:
For the skin test, 10 μg of 5 kinds of peptides was subcutaneously administered to each patient. Saline was used as the negative control. 20 minutes and 24 hours after injection, immediate and delayed type hypersensitivity (DHT) reactions were looked for. The skin test reaction was determined as positive if erythema and sclerosis were more than 10 mm in diameter. If the immediate hypersensitivity reaction was negative, a peptide was administered. Each peptide solution (3 mg/ml) was mixed with the same amount of IFA (Montanide ISA-51) and emulsified in a 5-mI plastic syringe, and 3 ml of the emulsion was subcutaneously administered to the lateral femoral region every two weeks. Serum PSA level was measured 4 weeks after vaccination. The time passed was defined as the time from the registration day to the date when the progress of the target disease was recorded. For patients who chose to discontinue the study without any progress of the target disease (e.g., increase in PSA) it was determined that the disease had progressed at the time the study was stopped.
When an immediate hypersensitivity reaction positive in the skin test of one of these peptides, that peptide was vaccinated if the fifth peptide of criteria A, B, or Z was negative in the skin test. […] In Table 14, o signifies vaccine peptides given to each patient.
Vaccine was administered to HLA-A24 positive patients with progressive cancer as following. CypB91 was given to lung cancer patients, ART475 to ovarian cancer patients, and SART3109 to colorectal cancer patients. None of the patients received any steroids or other immunosuppressants from 4 weeks before the beginning of this study to the end of the study. When the skin test was negative, 1 ml of peptide solution (1 mg/ml) was emulsified with the same amount of Freund's incomplete adjuvant (Montanide ISA-51) and injected subcutaneously. In this embodiment, all patients were vaccinated at least three times every two weeks, and up to seventeen times, depending on the patient's wishes.

The subject of series [2] is HLA-A24 restricted antigen peptide-specific T cells (CTL precursors) in PBMCs. It is filed as cell-based, human. The note with it: for IFN-γ production 1st well / IFN-γ production 2nd well / IFN-γ production 3rd well / change in reactivity of PBMCs to the vaccinated peptide after vaccination: HLA-A24 positive cervical cancer patient; for CTL precursor induction assay, response level per well: quadricate assay; for change in reactivity of PBMCs to the vaccinated peptide after vaccination: before vs after 3rd and 6th dose.

Series [3] concerns healthy donors. Kind of series: Allergic skin reaction (type I allergy) skin test in healthy donors.
The subject of series [4] is healthy donors. The following applies: in vivo.
The subject of series [5] is cancer patients. The note with it: cancer patients (Miyagi et al., Clin. Cancer Res. 7:3950, 2001); cited from earlier work.
Series [6] has as its system CD8 positive and HLA-A24/peptide tetramer positive T cells. The note with it: PBMCs of healthy donors sensitized in vitro with EBV peptide, protocol C.
Experimental: Recombinant HLA-A2402 a chains containing a biotinated portion and recombinant β2-microglobline were synthesized and used for refolding of soluble HLA molecules in the presence of HLA-A2402 binding peptides. […] Monomer HLA-peptide complex was biotinated with BirA in the a chain, which was isolated form free biotin by gel filtration. The biotinated HLA was tetramerized with 4:1 molar ratio of Strept-avidin-PE. PBMCs sensitized in vitro were re-suspended at the ratio of 5×10^5 cells per 25 μl of phosphate buffer saline (PBS) containing 20% of human AB serum. […] After that, the cells were washed with PBS and analyzed using FACScan. Twenty thousand events were obtained.
More specifically, PBMCs stimulated according to protocol C determined in Example 3 were analyzed by the tetramer assay as described above.
Setting [7] is: colorectal cancer patient 4, after the 3rd vaccination.
Where [8] appears, read: after more than 5 doses of cancer vaccine.
Where [9] appears, read: before vaccination, response to HIV-C1R-A24 cells subtracted.
The mark [10] stands for this setting: HRPC Pt. 1, pre-vaccinated PBMCs.
Setting [11] is: HRPC Pt. 3, pre-vaccinated PBMCs.
[12] abbreviates: HLA-A24 positive cervical cancer patient PBMCs.

Read-outs that look alike come from different tables or passages of the source. Where no end group is shown, it is not given here. Some results are limits rather than exact numbers.

Consider TFDYLRSVL [lck486], for which the “peptide-specific DTH reaction” value in series [1] (setting [7]) is “exhibited DTH reaction”. For the same sequence, the “IFN-γ production 1st well” value in series [2] (setting [8]) is listed as 2 pg/well; in series [2] (setting [9]), less than 0 pg/well. For the same sequence, the “IFN-γ production 2nd well” value is recorded as 24 pg/well in series [2] (setting [8]) and less than 0 pg/well in series [2] (setting [9]). Further, the “IFN-γ production 3rd well” value is recorded as less than 0 pg/well in series [2] (setting [8]) and 31 pg/well in series [2] (setting [9]). Also, the “CTL precursor induction assay, response level per well” value in series [2] (setting [10]) is “E (E: 0.1<p≦0.2 and 100≦net)”; in series [2] (HRPC Pt. 2, pre-vaccinated PBMCs) it was “^b(⊚B)”; in series [2] (setting [11]) it was “(D)”; in series [2] (HRPC Pt. 8, pre-vaccinated PBMCs), “⊚A”.
Take SFHRVIKDF: the “skin reaction compared with human CypB84” value in series [3] (5 healthy donors) is on record as “weaker skin reaction”. Besides, the “Allergic skin reaction, area of flare” value in series [3] (healthy donor HD1) turned out to be 0 mm × mm; in series [3] (healthy donor HD2), 400 mm × mm; in series [3] (healthy donor HD3), 225 mm × mm; in series [3] (healthy donor HD6), 255 mm × mm; in series [3] (healthy donor HD10), 100 mm × mm.
KFHRVIKDF [CypB84]: the “patients with immediate hypersensitivity reaction in pre-vaccination skin test” value in series [1] (vaccinated patients with lung cancer, Phase I clinical trial) is 8 of 10. Further, in series [4], the “rate of skin reaction occurrence” value is 95% and the “rate of skin reaction occurrence (donors)” value (shortened to “rate … (donors)”) was 39/41.
In the case of SYTRLFLIL [SART2899], in series [5], the “allergic skin reaction in pre-vaccination study” value was “induced allergic skin reaction”. Besides, the “immediate hypersensitivity reaction in skin test” value in series [1] (human, in vivo) is “positive in all patients”. For the same sequence, in series [4], the “rate of skin reaction occurrence” value was found to be 25% and the “rate … (donors)” value is given as 10/40.
For DYPSLSATDI [ART475], in series [2] (setting [8]), the “IFN-γ production 1st well” value was determined as 9 pg/well, the “IFN-γ production 2nd well” value amounted to 2 pg/well and the “IFN-γ production 3rd well” value is given as 60 pg/well. The “change in reactivity of PBMCs to the vaccinated peptide after vaccination” value in series [2] was “increase in reactivity”. In series [2] (setting [11]), the “CTL precursor induction assay, response level per well” value is listed as “⊚AE”. Also, in series [2] (HRPC Pt. 4, pre-vaccinated PBMCs), the “CTL precursor induction assay, response level per well” value is given as “⊚B”. Moreover, in series [4], the “rate … (donors)” value is “no such response”.
In the case of AYIDFEMKI [SART3315], the “allergic skin reaction in pre-vaccination study” value in series [5] was “induced allergic skin reaction”. The “type I allergy in skin tests during the course of vaccination” value (“type I allergy” below) in series [1] is recorded as “did not induce type I allergy”. In series [4], the “rate of skin reaction occurrence” value is given as 45% and the “rate … (donors)” value was 18/40.
Consider RYLRQQLLGI [HIV peptide], for which the “ratio of the CD8 positive and HLA-A24/peptide tetramer positive subsets” value in series [6] came out at 0.03%.
In the case of KFHRVIPKF, the “Allergic skin reaction, area of flare” value turned out to be 600 mm × mm in series [3] (healthy donor HD1); 750 mm × mm in series [3] (healthy donor HD2); 1225 mm × mm in series [3] (healthy donor HD3); 500 mm × mm in series [3] (healthy donor HD6); 625 mm × mm in series [3] (healthy donor HD10).
For the sequence DYLRSVLEDF [lck488], in series [1] (colorectal cancer patient 1), the “peptide-specific DTH reaction” value was “observed after the 6th vaccination”. For the same sequence, the “peptide-specific DTH reaction” value in series [1] (setting [7]) is on record as “exhibited DTH reaction”. In addition, in series [2] (setting [8]), the “IFN-γ production 1st well” value was found to be 25 pg/well and the “IFN-γ production 2nd well” value turned out to be 99 pg/well. Further, in series [2] (setting [9]), the “IFN-γ production 1st well” value was less than 0 pg/well, the “IFN-γ production 2nd well” value is less than 0 pg/well and the “IFN-γ production 3rd well” value was determined as 25 pg/well.
For the sequence PFHRVIPDF, the “Allergic skin reaction, area of flare” value in series [3] (healthy donor HD1) was 525 mm × mm; in series [3] (healthy donor HD2), 2000 mm × mm; in series [3] (healthy donor HD3), 1400 mm × mm; in series [3] (healthy donor HD6) it was 700 mm × mm; in series [3] (healthy donor HD10), 270 mm × mm.
Consider TYGPVFMCL [EBV, reference compound], for which the “ratio of the CD8 positive and HLA-A24/peptide tetramer positive subsets” value in series [6] is on record as 1.15%. In series [2], the “detection of peptide-specific T cells” value is “detected in all 10 donors”; the “difference in IFN-γ production between target cells sensitized with EB virus peptide and HIV peptide” value came out at 2775 pg/mL; the “difference in production level of IFN-γ between target cells sensitized with EB virus peptide and HIV peptide” value is given as “more than 300 pg/ml”.
Turning to NFHRVIKDF, the “Allergic skin reaction, area of flare” value in series [3] (healthy donor HD1) is 360 mm × mm; in series [3] (healthy donor HD2) it was 1400 mm × mm; in series [3] (healthy donor HD3), 600 mm × mm; in series [3] (healthy donor HD6) it was 1350 mm × mm; in series [3] (healthy donor HD10) it was 300 mm × mm.
For the sequence AFLRHAAL [ART413, AFLRHAAL], the “allergic skin reaction in pre-vaccination study” value in series [5] is on record as “induced allergic skin reaction”. In series [1] (human, in vivo), the “immediate hypersensitivity reaction in skin test” value was “positive in all patients”. Moreover, in series [1], the “type I allergy” value is on record as “did not induce type I allergy”. In series [4], the “rate of skin reaction occurrence” value was found to be 95% and the “rate … (donors)” value is 38/40.
For TFHRVIKDF, the “Allergic skin reaction, area of flare” value in series [3] (healthy donor HD1) amounted to 540 mm × mm; in series [3] (healthy donor HD2), 1400 mm × mm; in series [3] (healthy donor HD3) it was 750 mm × mm; in series [3] (healthy donor HD6), 450 mm × mm; in series [3] (healthy donor HD10) it was 300 mm × mm.
The like results for HFHRVIPDF were, in that order, 375 mm × mm, 1225 mm × mm, 750 mm × mm, 900 mm × mm and 156 mm × mm.
For the sequence DFMIQGGDF [CypB91], in series [1] (human, in vivo), the “immediate hypersensitivity reaction in skin test” value was “positive in all patients”. In addition, the “type I allergy” value in series [1] is “induced type I allergy”. The “rate … (donors)” value in series [4] is recorded as “no such response”.
EYCLKFTKL [ART1170]: the “immediate hypersensitivity reaction in skin test” value in series [1] (10 colorectal cancer patients, before vaccination) was “positive in all patients”.
For HYTNASDGL [lck208], the entries for the “peptide-specific DTH reaction” value in series [1] (colorectal cancer patient 1) and in series [1] (setting [7]) were “observed after the 6th vaccination” and “exhibited DTH reaction”, respectively. The “frequency of detection in the primary screening (patients)” value in series [2] is 3/10. The “IFN-γ production After 3rd dose of vaccine” value in series [2] (setting [12]) worked out at 676 pg/mL. In addition, the “IFN-γ production After 6th dose of vaccine” value in series [2] (setting [12]) worked out at 745 pg/mL. Moreover, the “IFN-γ production Pre-Vaccination” value in series [2] (setting [12]) was determined as 602 pg/mL. The “IFN-γ production 1st well” value in series [2] (setting [8]) is 41 pg/well; in series [2] (setting [9]), less than 0 pg/well. For the same sequence, the “IFN-γ production 2nd well” value in series [2] (setting [8]) is 1473 pg/well; in series [2] (setting [9]) it was less than 0 pg/well. Besides, the “IFN-γ production 3rd well” value in series [2] (setting [9]) was 76 pg/well. Further, the “change in reactivity of PBMCs to the vaccinated peptide after vaccination” value in series [2] is on record as “increase in reactivity”. For the same sequence, the “CTL precursor induction assay, response level per well” value in series [2] (setting [10]) is given as “E^′”; in series [2] (setting [11]), “⊚AD”; in series [2] (HRPC Pt. 6, pre-vaccinated PBMCs) it was “⊚ArAAC”; in series [2] (HRPC Pt. 9, pre-vaccinated PBMCs) it was “⊚AD”. Besides, the “positive well frequency after vaccination” value in series [2] (colorectal cancer patient 1) and in series [2] (colorectal cancer patient 2) was “increase in positive well frequency” each time.
Consider KFHRVGKDF [CypB 84-6G], for which the “suppressed cases FR ≦ 0.25” value in series [4] is reported as 3/7.
